Reference: US7511041B2, “Fused azole-pyrimidine derivatives” (Bayer Pharmaceuticals Corporation, priority 2002, dated 2009)
Counter-ions that a name gives are not always drawn. Like-named read-outs stand apart in the source and are kept apart here.

Experiments:
[1] = biological target: T1, Recombinant human PI3Kγ (full length human PI3K p110γ) (Homo sapiens, UniProt P48736); experiment: Kinase assay of PI3Kγ (solid-phase lipid kinase assay); type: biochemical
T1 construct: full length human PI3K p110γ fused with a His6-tag at the C-terminus; His6 (C); purchased ALEXIS BIOCHEMICALS #201-055-C010; host or cells: S. frugiperda 9 insect cells
T1 sequence (P48736 whole entry, the tested form may be a part): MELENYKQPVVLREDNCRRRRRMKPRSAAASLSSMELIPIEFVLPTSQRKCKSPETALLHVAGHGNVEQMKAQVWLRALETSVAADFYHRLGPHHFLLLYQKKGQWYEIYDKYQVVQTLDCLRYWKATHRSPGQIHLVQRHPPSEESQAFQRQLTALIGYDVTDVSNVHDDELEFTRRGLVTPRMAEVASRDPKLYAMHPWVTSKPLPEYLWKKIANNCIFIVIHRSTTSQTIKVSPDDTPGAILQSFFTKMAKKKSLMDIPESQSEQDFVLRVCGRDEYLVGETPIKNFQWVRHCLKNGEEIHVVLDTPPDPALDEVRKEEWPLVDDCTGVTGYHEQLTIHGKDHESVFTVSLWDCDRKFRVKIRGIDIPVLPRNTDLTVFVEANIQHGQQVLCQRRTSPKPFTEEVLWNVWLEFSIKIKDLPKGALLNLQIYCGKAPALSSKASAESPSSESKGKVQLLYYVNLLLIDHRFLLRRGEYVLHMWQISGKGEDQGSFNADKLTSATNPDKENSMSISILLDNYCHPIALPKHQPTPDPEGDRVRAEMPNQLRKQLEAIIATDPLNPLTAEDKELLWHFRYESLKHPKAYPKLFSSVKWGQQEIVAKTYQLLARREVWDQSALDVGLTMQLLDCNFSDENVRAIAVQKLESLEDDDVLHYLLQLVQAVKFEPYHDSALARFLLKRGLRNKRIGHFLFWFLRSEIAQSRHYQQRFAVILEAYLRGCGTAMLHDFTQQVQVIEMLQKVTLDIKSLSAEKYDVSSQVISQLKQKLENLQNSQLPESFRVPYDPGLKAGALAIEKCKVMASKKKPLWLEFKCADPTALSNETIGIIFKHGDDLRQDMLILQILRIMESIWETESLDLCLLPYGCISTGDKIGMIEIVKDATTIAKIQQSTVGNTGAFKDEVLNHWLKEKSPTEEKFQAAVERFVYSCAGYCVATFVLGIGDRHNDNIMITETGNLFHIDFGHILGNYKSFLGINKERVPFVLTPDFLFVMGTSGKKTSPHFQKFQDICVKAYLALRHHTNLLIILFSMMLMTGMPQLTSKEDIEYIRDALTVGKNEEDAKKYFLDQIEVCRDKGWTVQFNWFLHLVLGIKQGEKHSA

[2] = biological target: PI3Kβ (heterocomplex of p110β and GST-p85α) (UniProt Q9Z1L0); experiment: Isozyme selectivity test: kinase assay of PI3Kβ; type: biochemical; conditions: activity class of IC50, read-out: In vitro PI3K-β inhibitory activity
Experimental: [Isozyme Selectivity Test in PI3K]
{Determination of IC50 Values of Compounds in Kinase Assay of PI3Kβ}
Recombinant baculovirus of PI3Kβ p110β and GST-p85α were obtained from Dr. Katada (University of Tokyo). Recombinant PI3K heterocomplex of p110β and GST-p85α were co-expressed in insect cells according to manufacture's instruction (Pharmingen, San Diego, Calif.), and purified with glutathione affinity column. Kinase assay of PI3Kβ was prepared in a similar manner as described in the part of [Determination of IC50 values of compounds in kinase assay of PI3Kγ].

[3] = activity class of IC50, read-out: In vitro PI3K-γ inhibitory activity
[4] = in vitro PI3K-γ inhibitory activity, class symbols, read-out: in vitro PI3K-gamma
[5] = Table 1, isozyme not given, read-out: in vitro
[6] = in vitro PI3K-γ inhibitory activity, class symbols A-D, read-out: in vitro PI3K-gamma

Compound	melting point	IC50 [1, 5] [µM]	other results
COC(=O)CCCOc1ccc2c(c1OC)N=C(/C=C(\O)c1cccnc1)N1CCN=C21 [Example 1-5, Methyl 4-{[5-(2-hydroxy-2-pyridin-3-ylvinyl)-7-methoxy-2,3-dihydroimidazo[1,2-c]quinazolin-8-yl]oxy}butanoate]	199 to 200 °C	–	IC50 [1, 3]: < 0.1 µM; IC50 [2]: 0.5 to 2 µM
COc1c(O)ccc2c1N=C(/C=C(\O)c1cccnc1)N1CCN=C21 [Example 1-4, 5-(2-Hydroxy-2-pyridin-3-ylvinyl)-7-methoxy-2,3-dihydroimidazo[1,2-c]quinazolin-8-ol hydrochloride]	–	–	IC50 [1, 3]: < 0.1 µM; IC50 [2]: 0.5 to 2 µM
O=C(NC1=Nc2ccccc2C2=NCCN12)c1cccnc1 [Example 2-1, N-(2,3-Dihydroimidazo[1,2-c]quinazolin-5-yl)nicotinamide]	238 to 239 °C (dec.)	–	IC50 [1, 3]: < 0.1 µM; IC50 [2]: 0.1 to 0.5 µM
O=C(NC1=Nc2cc(O)ccc2C2=NCCN12)c1cccnc1 [Example 2-5, N-(8-Hydroxy-2,3-dihydroimidazo[1,2-c]quinazolin-5-yl)nicotinamide]	289 °C	–	IC50 [1, 3]: 0.1 to 0.5 µM; IC50 [2]: 0.5 to 2 µM
COc1cc2c(cc1OC)C1=NCCN1C(/C=C(\O)c1cccnc1)=N2 [Example 1-1, (Z)-2-(8,9-Dimethoxy-2,3-dihydroimidazo[1,2-c]quinazolin-5-yl)-1-(3-pyridinyl)ethenol]	275 °C	–	IC50 [1, 3]: < 0.1 µM; IC50 [2]: 0.5 to 2 µM
CC(=O)Nc1ccc(C(=O)NC2=Nc3cc(N4CCOCC4)ccc3C3=NCCN23)cn1 [Example 2-3, 6-(Acetamido)-N-[8-(morpholin-4-yl)-2,3-dihydroimidazo[1,2-c]quinazolin-5-yl]nicotinamide]	–	–	IC50 [1, 3]: < 0.1 µM; IC50 [2]: 0.5 to 2 µM
COc1c(OCCCC(=O)N2CCOCC2)ccc2c1N=C(/C=C(\O)c1cccnc1)N1CCN=C21 [Example 1-8, 2-[7-Methoxy-8-(4-morpholin-4-yl-4-oxobutoxy)-2,3-dihydroimidazo[1,2-c]quinazolin-5-yl]-1-pyridin-3-ylethylenol]	234 to 235 °C	–	IC50 [1, 3]: < 0.1 µM; IC50 [2]: 0.1 to 0.5 µM
COc1c(OCCCC(=O)O)ccc2c1N=C(/C=C(\O)c1cccnc1)N1CCN=C21 [Example 1-6, 4-{[5-(2-Hydroxy-2-pyridin-3-ylvinyl)-7-methoxy-2,3-dihydroimidazo[1,2-c]quinazolin-8-yl]oxy}butanoic acid]	–	–	IC50 [1, 3]: < 0.1 µM; IC50 [2]: 0.1 to 0.5 µM
CC(=O)Nc1ccc(C(=O)NC2=Nc3cc(N4CCOCC4)ccc3C3=NCCN23)cn1 [Example 2-4, 6-(Acetamido)-N-[8-(morpholin-4-yl)-2,3-dihydroimidazo[1,2-c]quinazolin-5-yl]nicotinamide hydrochloride]	–	–	IC50 ([2]; hydrochloride): 0.1 to 0.5 µM
O=C(NC1=Nc2cc(OCCn3cccc3)ccc2C2=NCCN12)c1cccnc1 [Example 2-6, N-{8-[2-(1-pyrrolyl)ethoxy]-2,3-dihydroimidazo[1,2-c]quinazolin-5-yl}nicotinamide]	209 °C	–	IC50 [1, 3]: 0.1 to 0.5 µM; IC50 [2]: 0.1 to 0.5 µM
Cl.O=C(NC1=Nc2ccccc2C2=NCCN12)c1cccc2[nH]ccc12 [Example 2-169]	295 °C (dec.)	–	IC50 [1, 4]: 0.1 to 0.5 µM
CC(=O)Nc1ccc(/C(O)=C/C2=Nc3nc(C)ccc3C3=NCCN23)cn1 [Example 1-161]	> 300 °C	0.1 to 0.5	–
O/C(=C\C1=Nc2ccccc2C2=NCCN12)c1cccnc1 [Example 1-134]	202 °C	0.1 to 0.5	–
O/C(=C\C1=Nc2cc(CN3CCOCC3)ccc2C2=NCCN12)c1cccnc1 [Example 1-111]	204 °C	0.1 to 0.5	–
Cn1cc(C(=O)NC2=Nc3ccccc3C3=NCCN23)c2ccccc21 [Example 2-315]	288 to 289 °C	–	IC50 [1, 6]: > 2 µM
O=C(NCCc1ccc2c(n1)N=C(/C=C(\O)c1cccnc1)N1CCN=C21)N1CCOCC1 [Example 1-204]	262 °C	0.5 to 2	–
COc1ccc2c(c1)N=C(NC(=O)c1ccc(NC(C)=O)nc1)N1CCN=C21.Cl [Example 2-22]	198 to 205 °C (dec.)	–	IC50 [1, 4]: 0.1 to 0.5 µM
COc1c(OCCCC(=O)N2CCOCC2)ccc2c1N=C(/C=C(\O)c1cccnc1)N1CCN=C21.Cl [Example 1-198]	215 to 216 °C	< 0.1	–
O/C(=C\C1=Nc2ccccc2C2=NCCN12)c1cnccn1 [Example 1-141]	233 to 235 °C	0.1 to 0.5	–
CCn1nc(C)cc1C(=O)NC1=Nc2cc(N3CCOCC3)ccc2C2=NCCN12 [Example 2-18]	232 °C	–	IC50 [1, 4]: 0.1 to 0.5 µM
Cc1ccc2c(c1)N=C(NC(=O)c1ccc3[nH]cnc3c1)N1CCN=C21.Cl [Example 2-30]	295 °C	–	IC50 [1, 4]: 0.1 to 0.5 µM
COc1c(OCC2CCCCO2)ccc2c1N=C(/C=C(\O)c1cccnc1)N1CCN=C21 (centres unmarked) [Example 1-194]	233 to 234 °C	< 0.1	–
O/C(=C\C1=Nc2ccccc2C2=NCCN12)C(F)(F)F [Example 1-184]	240 °C	0.5 to 2	–
CC(C)n1c(C(F)(F)F)nc2cc(C(=O)NC3=Nc4ccccc4C4=NCCN34)ccc21 [Example 2-309]	250 to 253 °C	–	IC50 [1, 6]: > 2 µM

Compound	melting point	IC50 [1, 5] [µM]	other results
COc1c(OCC(=O)OC(C)(C)C)ccc2c1N=C(/C=C(\O)c1cccnc1)N1CCN=C21 [Example 1-18]	184 to 186 °C	0.1 to 0.5	–
COc1ccc2c(c1OCCN1CCOCC1)N=C(/C=C(\O)c1ccc(NC(C)=O)nc1)N1CCN=C21.Cl [Example 1-38]	260 °C	< 0.1	–
COc1cc2c(c(OC)c1C)N=C(/C=C(\O)c1ccc3[nH]cnc3c1)N1CCN=C21 [Example 1-66]	280 °C	0.1 to 0.5	–
Cc1nc(N)ccc1C(=O)NC1=Nc2ccccc2C2=NCCN12 [Example 2-157]	146 to 148 °C	–	IC50 [1, 4]: 0.1 to 0.5 µM
Cl.O/C(=C\C1=Nc2ccccc2C2=NCCN12)c1nccs1 [Example 1-155]	> 300 °C	0.1 to 0.5	–
Cl.O=C(NC1=Nc2cc(Cl)ccc2C2=NCCN12)c1cccs1 [Example 2-41]	328 °C	–	IC50 [1, 4]: 0.1 to 0.5 µM
Cc1cccc2c1N=C(/C=C(\O)c1ccc3[nH]cnc3c1)N1CCN=C21.Cl [Example 1-79]	> 285 °C	< 0.1	–
Cc1ccc2c(c1)N=C(NC(=O)c1ccc3[nH]cnc3c1)N1CCN=C21 [Example 2-29]	190 °C	–	IC50 [1, 4]: < 0.1 µM
Cl.O=C(NC1=Nc2cc(C(F)(F)F)ccc2C2=NCCN12)c1cccnc1 [Example 2-34]	275 °C	–	IC50 [1, 4]: < 0.1 µM
Cc1nc2ccccn2c1C(=O)NC1=Nc2ccccc2C2=NCCN12 [Example 2-170]	277 to 279 °C	–	IC50 [1, 4]: 0.1 to 0.5 µM
CC(=O)Nc1ccc(/C(O)=C/C2=Nc3c(C)cccc3C3=NCCN23)cn1 [Example 1-77]	> 285 °C	< 0.1	–
O=C(NC1=Nc2ccc(F)cc2C2=NCCN12)c1cccnc1 [Example 2-360]	242 °C	–	IC50 [1, 6]: 0.5 to 2 µM
O/C(=C\C1=Nc2ccccc2C2=NCCN12)c1ccco1 [Example 1-143]	192 °C	0.1 to 0.5	–
O=C(O)c1cncc(C(=O)NC2=Nc3ccccc3C3=NCCN23)c1 [Example 2-142]	358 to 359 °C	–	IC50 [1, 4]: 0.1 to 0.5 µM
CN(C)c1ccc2c(c1)C1=NCCN1C(NC(=O)c1cccs1)=N2 [Example 2-346]	272 °C	–	IC50 [1, 6]: > 2 µM
N#Cc1ccc(/C(O)=C/C2=Nc3ccccc3C3=NCCN23)cc1 [Example 1-172]	260 to 264 °C	> 2	–
COc1cc2c(cc1OC)C1=NCCN1C(NC(=O)c1ccc(NC(C)=O)nc1)=N2 [Example 2-57]	224 °C	–	IC50 [1, 4]: 0.1 to 0.5 µM
COc1ccc2c(c1OCC(=O)O)N=C(/C=C(\O)c1cccnc1)N1CCN=C21.Cl [Example 1-200]	286 °C (dec.)	0.1 to 0.5	–
Cl.O=C(NC1=Nc2cc(OCCCN3C(=O)c4ccccc4C3=O)ccc2C2=NCCN12)c1cccnc1 [Example 2-209]	247 °C	–	IC50 [1, 6]: < 0.1 µM
O/C(=C\C1=Nc2cc(N3CCOCC3)ccc2C2=NCCN12)c1ccc2[nH]cnc2c1 [Example 1-100]	232 °C	< 0.1	–
C=Cc1ccc2c(c1)C1=NCCN1C(NC(=O)c1cccnc1)=N2 [Example 2-95]	196 to 198 °C	–	IC50 [1, 4]: 0.1 to 0.5 µM
COc1ccc2c(c1OC)N=C(NC(=O)c1ccc(NC(C)=O)nc1)N1CCN=C21 [Example 2-48]	306 to 307 °C	–	IC50 [1, 4]: < 0.1 µM
Cl.O=C(NC1=Nc2c(Cl)cccc2C2=NCCN12)c1ccc2[nH]cnc2c1 [Example 2-106]	> 280 °C	–	IC50 [1, 4]: 0.1 to 0.5 µM
CSc1ncccc1C(=O)NC1=Nc2ccccc2C2=NCCN12.Cl [Example 2-289]	298 to 299 °C	–	IC50 [1, 6]: 0.5 to 2 µM
